What is called IC50 is the concentration that inhibits the measured activity by half. Read a low IC50 as greater potency in that assay. The term CC50 denotes the concentration giving 50% cytotoxicity. Read a high CC50 as lower toxicity to the cells. The term clearance denotes the rate of elimination divided by the concentration. A higher clearance goes with efficient removal. For orientation: microsomal CLint means the rate of metabolic loss divided by the concentration. Read a high microsomal CLint as faster metabolism. Usually bioavailability stands for dose-corrected exposure relative to a reference, in per cent. The low end stands for little systemic uptake, the high end for much systemic uptake.

Experimental findings from ChEMBL document CHEMBL1153247, “Synthesis and biological evaluation of substituted 2-phenyl-2H-indazole-7-carboxamides as potent poly(ADP-ribose) polymerase (PARP) inhibitors” (Bioorg Med Chem Lett, 2010) are described below.

In data set [1] the target is Poly [ADP-ribose] polymerase 1 (Homo sapiens, UniProt P09874). Briefly: Inhibition of human PARP1 after 3 hrs using [3H]NAD+ by scintillation proximity assay.
Data set [2] relates to HeLa. Briefly: Cytotoxicity against human HeLa cells expressing BRCA1 after 7 days by fluorimetric analysis. Type of data set: functional. The following applies: 168 h.
The subject of data set [3] is HeLa. Briefly: Cytotoxicity against human BRCA1 deficient HeLa cells after 7 days by fluorimetric analysis. The following applies: 168 h. In kind it is functional, cell-based.
Data set [4] is described as follows: Clearance in rat. Type of data set: ADME, organism-based. The settings on record: in vivo.
A short description of data set [5]: Intrinsic clearance in rat microsomes. Type of data set: ADME, Microsome.
The subject of a further data set is Rattus norvegicus. Briefly: (§1) Oral bioavailability in rat. In kind it is ADME, organism-based. The settings on record: in vivo.
Data set [6] in a line: as §1. Type of data set: ADME, organism-based. The following applies: in vivo.

The structures appear in SMILES notation. Several values for one entry are separate records, joined by “and”; a condition that tells them apart may be missing. Equal entries are not always repeated.

Sequence of Poly [ADP-ribose] polymerase 1 (P09874 whole entry): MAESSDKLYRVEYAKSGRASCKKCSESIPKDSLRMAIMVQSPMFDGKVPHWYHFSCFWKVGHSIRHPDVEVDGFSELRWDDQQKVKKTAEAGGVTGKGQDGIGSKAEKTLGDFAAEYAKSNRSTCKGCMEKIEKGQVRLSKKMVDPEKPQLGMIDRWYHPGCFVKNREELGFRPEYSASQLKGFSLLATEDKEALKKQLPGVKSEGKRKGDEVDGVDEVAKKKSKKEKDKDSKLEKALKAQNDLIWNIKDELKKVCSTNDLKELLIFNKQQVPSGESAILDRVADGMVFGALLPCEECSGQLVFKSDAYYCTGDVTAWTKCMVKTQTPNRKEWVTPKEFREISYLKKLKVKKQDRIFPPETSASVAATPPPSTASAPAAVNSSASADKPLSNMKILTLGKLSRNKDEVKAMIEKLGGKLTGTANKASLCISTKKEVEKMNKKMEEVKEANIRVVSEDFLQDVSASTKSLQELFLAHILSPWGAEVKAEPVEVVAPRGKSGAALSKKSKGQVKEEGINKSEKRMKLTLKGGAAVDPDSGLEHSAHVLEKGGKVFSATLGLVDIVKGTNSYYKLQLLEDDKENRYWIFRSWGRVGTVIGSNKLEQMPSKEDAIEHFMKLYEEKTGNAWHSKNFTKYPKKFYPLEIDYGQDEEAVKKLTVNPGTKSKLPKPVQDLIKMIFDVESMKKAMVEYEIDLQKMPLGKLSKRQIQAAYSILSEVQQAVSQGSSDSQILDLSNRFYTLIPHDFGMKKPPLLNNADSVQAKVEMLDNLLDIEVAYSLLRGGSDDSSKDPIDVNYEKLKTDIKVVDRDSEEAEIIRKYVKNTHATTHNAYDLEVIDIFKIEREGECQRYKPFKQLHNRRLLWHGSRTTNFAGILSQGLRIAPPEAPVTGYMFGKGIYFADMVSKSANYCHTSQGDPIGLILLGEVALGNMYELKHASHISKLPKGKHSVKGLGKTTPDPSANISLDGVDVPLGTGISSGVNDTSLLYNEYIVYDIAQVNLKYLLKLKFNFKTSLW

On to `CNCc1ccc(-n2cc3c(O)ccc(C(N)=O)c3n2)cc1`, for which the IC50 in data set [1] was 540 nM; in the data set on HeLa [3], greater than 20000 nM. This molecule also gave a CC50 in the data set on HeLa [2] greater than 20000 nM.
Regarding `NC(=O)c1cc(F)cc2cn(-c3ccc(NC(=O)C4CNC4)c(F)c3)nc12`, the half-inhibitory concentration (IC50) in data set [1] was found to be 4 nM; in the data set on HeLa [3] it was 42 nM. In the data set on HeLa [2], this molecule registered a 50% cytotoxic concentration (CC50) of 650 nM.
For `CN1CCC[C@H]1C(=O)Nc1ccc(-n2cc3cccc(C(N)=O)c3n2)cc1` the same measures were 17 nM, 1200 nM and 5000 nM.
The matching figures for `CNCc1ccc(-n2cc3cc(Cl)cc(C(N)=O)c3n2)cc1`: 5 nM, 260 nM and 1000 nM.
The matching figures for `NC(=O)c1cccc2cn(-c3cccc(C(=O)N4CCCNCC4)c3)nc12`: 40 nM, greater than 20000 nM and greater than 20000 nM.
In the case of `CN(C)CCNC(=O)c1ccc(-n2cc3cccc(C(N)=O)c3n2)cc1`, the half-maximal inhibitory concentration (IC50) in data set [1] is 10 nM; in the data set with HeLa [3], 5400 nM. In the data set with HeLa [2], this molecule gave a CC50 of 8900 nM.
`NC(=O)c1cccc2cn(-c3ccccc3)nc12`: the IC50 in data set [1] is 25 nM.
For `CNCc1ccc(-n2cc3cccc(C(N)=O)c3n2)cc1O`, the IC50 was determined as 12 nM in data set [1] and 3400 nM in the data set on HeLa [3]. This molecule showed a half-maximal cytotoxic concentration (CC50) in the data set on HeLa [2] greater than 10000 nM.
The matching figures for `CN1CCC[C@@H](C(=O)Nc2ccc(-n3cc4cc(F)cc(C(N)=O)c4n3)cc2F)C1`: 12 nM, 440 nM and 1800 nM.
In the case of `CN1CCCCC1C(=O)Nc1ccc(-n2cc3cccc(C(N)=O)c3n2)cc1` (racemic), the half-maximal inhibitory concentration (IC50) in data set [1] was 46 nM; in the data set on HeLa [3], 2600 nM. This molecule displayed a CC50 with HeLa [2] of 6700 nM.
The matching figures for `NC(=O)c1cccc2cn(-c3ccc(CNC(=O)C4CNC4)cc3)nc12`: 65 nM, greater than 20000 nM and greater than 20000 nM.
For the molecule `CNCc1ccc(-n2cc3cc(F)cc(C(N)=O)c3n2)c(F)c1`, the IC50 in data set [1] was found to be 6 nM; in the data set with HeLa [3] it was 230 nM. For the same molecule, in the data set on HeLa [2], the CC50 was 4200 nM.
The matching figures for `CNCc1ccc(-n2cc3c(OC)ccc(C(N)=O)c3n2)cc1`: greater than 1000 nM, 3400 nM and 5500 nM.
Consider `CNCc1ccc(-n2nc3c(C(N)=O)cccc3c2Cl)cc1`, for which the concentration for half-maximal inhibition (IC50) is 20 nM in data set [1] and 5900 nM in the data set on HeLa [3]. For the same molecule, the CC50 in the data set with HeLa [2] was 11000 nM.
For `NC(=O)c1cccc2cn(-c3ccc(NC(=O)CN4CCCCC4)cc3)nc12` the same measures were 20 nM, 1400 nM and 3000 nM.
The matching figures for `NC(=O)c1cccc2cn(-c3ccc(C(=O)NCc4ccncc4)cc3)nc12`: 10 nM, 3900 nM and 8700 nM.
Turning to `CNCc1ccc(-n2cc3cc(F)cc(C(N)=O)c3n2)cc1F`, the IC50 in data set [1] was found to be 2 nM; in the data set with HeLa [3], 26 nM. In the data set on HeLa [2], half-maximal cytotoxicity (CC50) was put at 1500 nM.
In the case of `NC(=O)c1cccc2cn(-c3ccc(NC(=O)C4CNC4)cc3)nc12`, in data set [4], the clearance came out at 13 mL/min/kg. The 50% inhibitory concentration (IC50) was found to be 10 nM in data set [1] and 920 nM in the data set with HeLa [3]. In addition, in data set [5], the microsomal CLint amounted to 1 µL/min/mg. The molecule also gave a CC50 with HeLa [2] greater than 20000 nM. Besides, the F with Rattus norvegicus is 1% and 3%.
Consider `CN1CCC(C(=O)Nc2ccc(-n3cc4cc(F)cc(C(N)=O)c4n3)cc2)CC1`, for which the clearance in data set [4] came out at 26 mL/min/kg. For the same molecule, the IC50 came to 16 nM in data set [1] and 520 nM in the data set on HeLa [3]. In the data set on HeLa [2], this molecule showed a CC50 of 2700 nM. This molecule returned a bioavailability in data set [6] of 66%.
For `CNCc1ccc(-n2cc3cc(F)cc(C(N)=O)c3n2)cc1`, the IC50 in data set [1] was determined as 1.4 nM; in the data set with HeLa [3], 94 nM. In the data set on HeLa [2], this molecule showed a CC50 of 1800 nM.
The matching figures for `CNCc1ccc(-n2cc3cccc(C(N)=O)c3n2)cc1C(F)(F)F`: 5 nM, 6200 nM and greater than 20000 nM.
The matching figures for `CN1CC(C(=O)Nc2ccc(-n3cc4cc(F)cc(C(N)=O)c4n3)cc2F)C1`: 6 nM, 480 nM and 1600 nM.
For `CN1CCC(C(=O)Nc2ccc(-n3cc4cccc(C(N)=O)c4n3)cc2)CC1` the same measures were 10 nM, 3600 nM and 8400 nM.
For the molecule `NC(=O)c1cccc2cn(-c3ccc(C(=O)Nc4ccncc4)cc3)nc12`, the IC50 in data set [1] was found to be 30 nM; with HeLa [3], 7300 nM. In the data set on HeLa [2], this molecule displayed a CC50 greater than 50000 nM.
The matching figures for `CNCc1ccc(-n2cc3ccc(F)c(C(N)=O)c3n2)cc1`: 20 nM, 1600 nM and greater than 10000 nM.
Take `NC(=O)c1cccc2cn(-c3ccc(C(=O)NCCN4CCCCC4)cc3)nc12`: the figures for the IC50 (in data set [1]; in the data set with HeLa [3]) were 38 nM and 3000 nM, respectively. For the same molecule, the CC50 with HeLa [2] came to 6400 nM.
For `CN1CC(C(=O)Nc2ccc(-n3cc4cc(F)cc(C(N)=O)c4n3)cc2)C1` the same measures were 6 nM, 720 nM and 2600 nM.
The matching figures for `NC(=O)c1cccc2cn(-c3ccc(NC(=O)CN4CCCC4)cc3)nc12`: 10 nM, 930 nM and 2800 nM.
For `CNCc1ccc(-n2cc3cccc(C(N)=O)c3n2)cc1F` the same measures were 4 nM, 200 nM and 3800 nM.
In turn, `NC(=O)c1cc(F)cc2cn(-c3ccc(NC(=O)C4CNC4)cc3)nc12` showed a clearance in data set [4] of 13 mL/min/kg. The half-maximal inhibitory concentration (IC50) stood at 5 nM in data set [1] and 310 nM with HeLa [3]. The midpoint of cytotoxicity in the data set with HeLa [2], the CC50, lay at 5900 nM. Further, the bioavailability in data set [6] was found to be 3%.
As to `CNCc1ccc(-n2cc3c(F)c(F)cc(C(N)=O)c3n2)cc1`, the IC50 turned out to be 25 nM in data set [1] and 2600 nM in the data set on HeLa [3]. In the data set on HeLa [2], this molecule came in with a CC50 greater than 5000 nM.
Turning to `CNCc1ccc(-n2cc3c(F)ccc(C(N)=O)c3n2)cc1`, the IC50 in data set [1] amounted to 8 nM; in the data set with HeLa [3] it was 2500 nM. This molecule gave a CC50 with HeLa [2] of 6300 nM.
The matching figures for `CN1CCCC(C(=O)NCc2ccc(-n3cc4cccc(C(N)=O)c4n3)cc2)C1` (stereo not drawn): 22 nM, 2300 nM and 9400 nM.
The matching figures for `CN(Cc1ccc(-n2cc3cccc(C(N)=O)c3n2)cc1)C(=O)C1CNC1`: 18 nM, greater than 20000 nM and 20000 nM.
Regarding `NC(=O)c1cccc2cn(-c3ccc(C(=O)N4CCCNCC4)cc3)nc12`, the IC50 was 22 nM in data set [1] and greater than 10000 nM in the data set on HeLa [3]. This molecule had a CC50 with HeLa [2] greater than 20000 nM.
As for `CN1CCC[C@@H](C(=O)Nc2ccc(-n3cc4cccc(C(N)=O)c4n3)cc2)C1`, in data set [4], the clearance worked out at 23 mL/min/kg. The IC50 was found to be 30 nM in data set [1] and 820 nM in the data set with HeLa [3]. Also, in the data set on HeLa [2], half-maximal cytotoxicity (CC50) was put at 4300 nM. The same molecule displayed a bioavailability in data set [6] of 47%.
Consider `NC(=O)c1cccc2cn(-c3ccc(NC(=O)CN4CCOCC4)cc3)nc12`, for which the IC50 in data set [1] amounted to 30 nM; with HeLa [3] it was 5000 nM. Also, the cytotoxic concentration (CC50) in the data set on HeLa [2] was greater than 6000 nM.
For `CN(C)CC(=O)Nc1ccc(-n2cc3cccc(C(N)=O)c3n2)cc1` the same measures were 15 nM, 1500 nM and 5000 nM.
The matching figures for `CN1CCCC(C(=O)N(C)Cc2ccc(-n3cc4cccc(C(N)=O)c4n3)cc2)C1` (stereo not drawn): 25 nM, 8600 nM and greater than 20000 nM.
The matching figures for `CNCc1ccc(-n2cc3c(Cl)ccc(C(N)=O)c3n2)cc1`: 180 nM, 5200 nM and 4300 nM.
For the molecule `NC(=O)c1cccc2cn(-c3ccc(C(=O)NCCN4CCOCC4)cc3)nc12`, the values for the half-maximal inhibitory concentration (IC50) (in data set [1]; in the data set with HeLa [3]) were 54 nM and 7600 nM, respectively. The molecule further gave a CC50 with HeLa [2] greater than 20000 nM.
For `NC(=O)c1cccc2cn(-c3ccc(C(=O)NCCN4CCCC4)cc3)nc12` the same measures were 20 nM, 3300 nM and 8000 nM.
In the case of `CN1CCC[C@H](C(=O)Nc2ccc(-n3cc4cccc(C(N)=O)c4n3)cc2)C1`, the clearance in data set [4] was found to be 42 mL/min/kg. In addition, the figures for the IC50 (in data set [1]; with HeLa [3]) were 20 nM and 1300 nM, respectively. In addition, in the data set on HeLa [2], the CC50 stood at 6000 nM.
Turning to `CNCc1ccc(-n2cc3cccc(C(N)=O)c3n2)cc1`, the half-inhibitory concentration (IC50) in data set [1] amounted to 5 nM; with HeLa [3], 500 nM. In addition, half-maximal cytotoxicity in the data set with HeLa [2] (CC50) was put at 5600 nM.
As to `CNCc1ccc(-n2cc3cccc(C(N)=O)c3n2)cc1OC`, the IC50 in data set [1] is 4 nM; in the data set on HeLa [3], 1900 nM. Besides, the midpoint of cytotoxicity with HeLa [2], the CC50, lay at 11000 nM.
